# Assay results as given in ChEMBL document CHEMBL5042535, “Structure-Based Design and Synthesis of N-Substituted 3-Amino-β-Carboline Derivatives as Potent αβ-Tubulin Degradation Agents” (J Med Chem, 2022).
# Key:
# Assay type in all cases: functional, cell-based
# A2780S = experiment: Antiproliferative activity against human A2780S cells assessed as reduction in cell viability measured after 24 hrs by MTT assay
# NCI-H460 = experiment: Antiproliferative activity against human NCI-H460 cells assessed as reduction in cell viability measured after 24 hrs by MTT assay; settings: NCI-H460, 24 h
# HeLa = experiment: Antiproliferative activity against human HeLa cells assessed as reduction in cell viability measured after 24 hrs by MTT assay
# MCF7 = experiment: Antiproliferative activity against human MCF7 cells assessed as reduction in cell viability measured after 24 hrs by MTT assay; settings: MCF7, 24 h
# Raji = experiment: Antiproliferative activity against human Raji cells assessed as reduction in cell viability measured after 24 hrs by MTT assay
IC50 (A2780S),IC50 (NCI-H460),IC50 (HeLa),IC50 (MCF7),IC50 (Raji),Compound
> 500 nM,> 500 nM,> 500 nM,> 500 nM,> 500 nM,c1ccc2cc(CNc3cc4c(cn3)[nH]c3ccccc34)ccc2c1
60 nM,47 nM,43 nM,39 nM,32 nM,Clc1cccc(Oc2cccc(CNc3cc4c(cn3)[nH]c3ccccc34)c2)c1
> 500 nM,> 500 nM,> 500 nM,> 500 nM,> 500 nM,c1ccc2c(CNc3cc4c(cn3)[nH]c3ccccc34)c[nH]c2c1
